Data as given in patent US12049450B2, “Pyridyloxy-carboxylate derivative and preparation method therefor, herbicidal composition, and use” (Qingdao Kingagroot Chemical Compound Co., Ltd., priority 2018, dated 2024).

Experiments:
Assay type in all cases: in vivo
Abutilon theophrasti = experiment: Post-emergence test experiment (greenhouse pot, spray at 2-3 leaf stage); conditions: 1000 g/ha; post-emergence spray at 2-3 leaf stage; assessed after 3 weeks; fresh weight inhibition rate
How it was run: (§1)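 Weed seeds sown in soil-filled pots in greenhouse, sprayed at 2-3 leaf stage (2 weeks after sowing) with compound in acetone/tween-80 plus methyl oleate emulsible concentrate (1.5 L/ha) diluted in water. Fresh-weight growth inhibition scored after 3 weeks on 0-5 scale (5: >85%, 0: <5%).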

Cyperus iria = experiment: as above; conditions: post-emergence, 600 g/ha, after 3 weeks; from Hunan, resistant to ALS inhibitor herbicides
How it was run: as §1

Digitaria sanguinalis = experiment: as above; conditions: 1000 g/ha; post-emergence spray at 2-3 leaf stage; assessed after 3 weeks; fresh weight inhibition rate
How it was run: as §1

Echinochloa crusgalli = experiment: as above; conditions: for Activity level (growth inhibition rate) Echinochloa crusgalli: 1000 g/ha, post-emergence spray at 2-3 leaf stage, assessed after 3 weeks, fresh weight inhibition rate; for Echinochloa crusgalli, activity level (growth inhibition rate): post-emergence, 600 g/ha, after 3 weeks, from Hunan, resistant to ALS inhibitor herbicides
How it was run: as §1

Galium spurium = experiment: as above; conditions: 1000 g/ha; post-emergence spray at 2-3 leaf stage; assessed after 3 weeks; fresh weight inhibition rate
How it was run: as §1

Indica rice = experiment: as above; conditions: post-emergence, 600 g/ha, after 3 weeks
How it was run: (§2)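 Activity graded levels 0-5 by fresh-weight inhibition (level 5 above 85%, level 0 below 5%), assessed 3 weeks after treatment. Plants grown in greenhouse pots were sprayed post-emergence at 2-3 leaves using acetone/tween-80 solutions with methyl oleate synergist (1.5 L/ha).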

Japonica rice = experiment: as above; conditions: post-emergence, 600 g/ha, after 3 weeks
How it was run: as §2

Monochoria vaginalis [1] = experiment: as above; conditions: 1000 g/ha; post-emergence spray at 2-3 leaf stage; assessed after 3 weeks; fresh weight inhibition rate
How it was run: as §1

rice (japonica rice) = experiment: Transplanted rice safety evaluation in rice field soil pot; conditions: 1000 g/ha, 21 days after treatment
Source text: (§3) The activity level standard of harmful plants destruction (i. e. growth inhibition rate) is as follows: • Level 5: the growth inhibition rate is greater than 85%; • Level 4: the growth inhibition rate is equal to or greater than 60% and less than 85%; • Level 3: the growth inhibition rate is equal to or greater than 40% and less than 60%; • Level 2: the growth inhibition rate is equal to or greater than 20% and less than 40%; • Level 1: the growth inhibition rate is equal to or greater than 5% and less than 20%; • Level 0: the growth inhibition rate is less than 5%;
(§4) Transplanted rice safety evaluation and weed control effect evaluation in rice field:
In addition, the rice field soil that loaded into the 1/1,000,000 ha pot was leveled to keep water storage at 3-4 cm depth. The 3-leaf stage rice (japonica rice) was transplanted at 3 cm of transplanting depth the next day. The compound of the present invention was treated by the same way after 5 days of transplantation.
(§5) The fertility condition of Monochoria vaginalis 14 days and rice 21 days after the treatment of the compound of the invention with the naked eye.

Monochoria vaginalis [2] = experiment: Weed control effect evaluation in rice field soil pot; conditions: paddy pot, 1000 g/ha, 14 days after treatment; resistant to pyrazosulfuron-ethyl and penoxsulam
Source text: as §3, §4
Rice field soil was loaded into a 1/1,000,000 ha pot. The seeds of Monochoria vaginalis were sowed and gently covered with soil, then left to stand still in greenhouse in the state of 0.5-1 cm of water storage. It was kept at 3-4 cm of water storage thereafter. The weeds were treated by dripping the WP or SC water diluents prepared according to the common preparation method of the compounds of the present invention with pipette homogeneously to achieve specified effective amount when Monochoria vaginalis reached 0.5 leaf stage.
as §5

Structure (SMILES) | Activity level (growth inhibition rate) Abutilon theophrasti (Abutilon theophrasti) | Cyperus iria, activity level (growth inhibition rate) (Cyperus iria) | Activity level (growth inhibition rate) Digitaria sanguinalis (Digitaria sanguinalis) | Activity level (growth inhibition rate) Echinochloa crusgalli (Echinochloa crusgalli) | Echinochloa crusgalli, activity level (growth inhibition rate) (Echinochloa crusgalli) | Activity level (growth inhibition rate) Galium spurium (Galium spurium) | Indica rice, activity level (growth inhibition rate) (Indica rice) | Japonica rice, activity level (growth inhibition rate) (Japonica rice) | Activity level (growth inhibition rate) Monochoria Vaginalis (Monochoria vaginalis [1]) | Rice, safety level (rice (japonica rice)) | Monochoria Vaginalis, activity level (Monochoria vaginalis [2])
CC(Oc1nc(F)c(Br)c(N)c1Br)C(=O)SCc1ccccc1 (stereo not drawn) [Compound 12] | 5 (Level 5: the growth inhibition rate is greater than 85%) | 5 (Level 5: the growth inhibition rate is greater than 85%) | 5 (Level 5: the growth inhibition rate is greater than 85%) | 5 (Level 5: the growth inhibition rate is greater than 85%) | 5 (Level 5: the growth inhibition rate is greater than 85%) | 5 (Level 5: the growth inhibition rate is greater than 85%) | 0 (Level 0: the growth inhibition rate is less than 5%) | 0 (Level 0: the growth inhibition rate is less than 5%) | 5 (Level 5: the growth inhibition rate is greater than 85%) | 0 (Level 0: the growth inhibition rate is less than 5%) | 5 (Level 5: the growth inhibition rate is greater than 85%)
CC(Oc1nc(F)c(Cl)c(N)c1Cl)C(=O)SCc1cc(C2CC2)nn1C (stereo not drawn) [Compound 128] | 5 (Level 5: the growth inhibition rate is greater than 85%) | 5 (Level 5: the growth inhibition rate is greater than 85%) | 5 (Level 5: the growth inhibition rate is greater than 85%) | 5 (Level 5: the growth inhibition rate is greater than 85%) | 5 (Level 5: the growth inhibition rate is greater than 85%) | 5 (Level 5: the growth inhibition rate is greater than 85%) | 0 (Level 0: the growth inhibition rate is less than 5%) | 0 (Level 0: the growth inhibition rate is less than 5%) | 5 (Level 5: the growth inhibition rate is greater than 85%) | 0 (Level 0: the growth inhibition rate is less than 5%) | 5 (Level 5: the growth inhibition rate is greater than 85%)
CC(Oc1nc(F)c(Cl)c(N)c1Cl)C(=O)OCc1ccccc1F (stereo not drawn) [Compound 75] | 5 (Level 5: the growth inhibition rate is greater than 85%) | 5 (Level 5: the growth inhibition rate is greater than 85%) | 5 (Level 5: the growth inhibition rate is greater than 85%) | 5 (Level 5: the growth inhibition rate is greater than 85%) | 5 (Level 5: the growth inhibition rate is greater than 85%) | 5 (Level 5: the growth inhibition rate is greater than 85%) | 0 (Level 0: the growth inhibition rate is less than 5%) | 0 (Level 0: the growth inhibition rate is less than 5%) | 5 (Level 5: the growth inhibition rate is greater than 85%) | 0 (Level 0: the growth inhibition rate is less than 5%) | 5 (Level 5: the growth inhibition rate is greater than 85%)
CC(Oc1nc(F)c(Cl)c(N)c1Cl)C(=O)SCc1ccc2ncccc2c1 (stereo not drawn) [Compound 185] | 5 (Level 5: the growth inhibition rate is greater than 85%) | 5 (Level 5: the growth inhibition rate is greater than 85%) | 5 (Level 5: the growth inhibition rate is greater than 85%) | 5 (Level 5: the growth inhibition rate is greater than 85%) | 5 (Level 5: the growth inhibition rate is greater than 85%) | 5 (Level 5: the growth inhibition rate is greater than 85%) | 0 (Level 0: the growth inhibition rate is less than 5%) | 0 (Level 0: the growth inhibition rate is less than 5%) | 5 (Level 5: the growth inhibition rate is greater than 85%) | 0 (Level 0: the growth inhibition rate is less than 5%) | 5 (Level 5: the growth inhibition rate is greater than 85%)
COc1c(Cl)ccc(COC(=O)C(C)Oc2nc(F)c(Cl)c(N)c2Cl)c1F (stereo not drawn) [Compound 85] | 5 (Level 5: the growth inhibition rate is greater than 85%) | 5 (Level 5: the growth inhibition rate is greater than 85%) | 5 (Level 5: the growth inhibition rate is greater than 85%) | 5 (Level 5: the growth inhibition rate is greater than 85%) | 5 (Level 5: the growth inhibition rate is greater than 85%) | 5 (Level 5: the growth inhibition rate is greater than 85%) | 0 (Level 0: the growth inhibition rate is less than 5%) | 0 (Level 0: the growth inhibition rate is less than 5%) | 5 (Level 5: the growth inhibition rate is greater than 85%) | 0 (Level 0: the growth inhibition rate is less than 5%) | 5 (Level 5: the growth inhibition rate is greater than 85%)
CC(Oc1nc(F)c(Cl)c(N)c1Cl)C(=O)OCCc1ccoc1 (stereo not drawn) [Compound 140] | 5 (Level 5: the growth inhibition rate is greater than 85%) | 5 (Level 5: the growth inhibition rate is greater than 85%) | 5 (Level 5: the growth inhibition rate is greater than 85%) | 5 (Level 5: the growth inhibition rate is greater than 85%) | 5 (Level 5: the growth inhibition rate is greater than 85%) | 5 (Level 5: the growth inhibition rate is greater than 85%) | 0 (Level 0: the growth inhibition rate is less than 5%) | 0 (Level 0: the growth inhibition rate is less than 5%) | 5 (Level 5: the growth inhibition rate is greater than 85%) | 0 (Level 0: the growth inhibition rate is less than 5%) | 5 (Level 5: the growth inhibition rate is greater than 85%)
